These are literature values, as cited in patent US7622592B2, “Carbonylamino-benzimidazole derivatives as androgen receptor modulators” (Merck & Co., Inc., priority 2002, dated 2009).

For the data set the following is noted: after 7 years of treatment.

Regarding `NCCCC(O)(P(=O)(O)O)P(=O)(O)O` [alendronate, 4-amino-1-hydroxybutylidene-1,1-bisphosphonic acid], the “increase in spinal BMD” value is listed as 11.
